Experimental findings from US20080015260A1, “Pharmaceutical compositions having improved stability and methods for preparation and use” (Kiel Laboratories, Inc., priority 2006, published 2008) are described below.

Structures can show the parent of a compound that is named as a salt.

The nature of this data set: Conversion of API to insoluble tannate complex in reaction mixtures (centrifugation, % converted insoluble). Format: physicochemical. Conditions: for conversion to the tannate complex at reduced Neusilin® levels: ½ (4.4 wt%) and ¼ (2.2 wt%) Neusilin®. On the procedure:
The following example is a series of reaction mixtures for suspension formulations containing phenylephrine HCl, tannic acid and MAS or various concentrations of Neusilin®:
Analysis of the above suspensions was carried out by removing 10 gms of product and centrifuging. The amount of API found in the insoluble portion of the suspension was reported as the % converted insoluble and the liquid portion as the % converted soluble.
Analysis of the above suspension was carried out by removing 10 gms of product and centrifuging. The amount of API found in the insoluble portion of the suspension was reported as the % converted insoluble and the liquid portion as the % converted soluble.

Regarding `CCN(CC)CCOCCOC(=O)C1(c2ccccc2)CCCC1` [carbetapentane, Carbetapentane Citrate], the “conversion to the tannate complex at reduced Neusilin® levels” value is reported as “same level of conversion”. The “effect of Neusilin® on level of conversion to the tannate complex compared to MAS” value (Neusilin® versus MAS, FIG. 2, FIG. 3) was “does not significantly affect the level of conversion”.

`CNC[C@H](O)c1cccc(O)c1` [phenylephrine, Phenylephrine HCl]: the “conversion to the tannate complex at reduced Neusilin® levels” value is recorded as “same increase in conversion”. For the same compound, the “increase in conversion to the tannate complex with Neusilin® in the suspension” value (Neusilin® 8.7 wt% versus MAS 8.7 wt%, FIG. 1) is on record as > 30%.
